From ChEMBL document CHEMBL4251572, “Novel aminopyrimidinyl benzimidazoles as potentially antimicrobial agents: Design, synthesis and biological evaluation” (Eur J Med Chem, 2018)
In brackets after ≈: the same amount, converted by molar mass.

Columns and labels:
Cyberlindnera jadinii = test: Antifungal against Candida utilis after 24 hrs by two fold serial dilution method; assay type: functional; details: Williopsis jadinii
Escherichia coli [1] = test: Antibacterial activity against Escherichia coli DH52 after 24 hrs by micro broth dilution assay; assay type: functional; details: DH52, 24 h
Bacillus subtilis = test: Antibacterial activity against Bacillus subtilis after 24 hrs by micro broth dilution assay; assay type: functional
Candida albicans = test: Antifungal against Candida albicans ATCC 76615 after 24 hrs by two fold serial dilution method; assay type: functional; details: ATCC 76615, 24 h
Pichia norvegensis = test: Antifungal against Candida mycoderma after 24 hrs by two fold serial dilution method; assay type: functional
Escherichia coli [2] = test: Antibacterial activity against Escherichia coli JM109 after 24 hrs by micro broth dilution assay; assay type: functional; details: JM109, 24 h
Staphylococcus aureus [3] = test: Antibacterial activity against Staphylococcus aureus ATCC 25923 after 24 hrs by micro broth dilution assay; assay type: functional; details: ATCC 25923, 24 h
Shigella dysenteriae = test: Antibacterial activity against Shigella dysenteriae after 24 hrs by micro broth dilution assay; assay type: functional
Pseudomonas aeruginosa [4] = test: Antibacterial activity against Pseudomonas aeruginosa after 24 hrs by micro broth dilution assay; assay type: functional
Pseudomonas aeruginosa [5] = test: Antibacterial activity against Pseudomonas aeruginosa incubated for 24 hrs followed by plating onto tryptic soy agar medium and measured after 24 hrs; assay type: functional
Staphylococcus aureus [6] = test: Ratio of MBC for Staphylococcus aureus ATCC 25923 to MIC for Staphylococcus aureus ATCC 25923; assay type: functional
Pseudomonas aeruginosa [7] = test: Ratio of MBC for Pseudomonas aeruginosa to MIC for Pseudomonas aeruginosa; assay type: functional
Staphylococcus aureus [8] = test: Antibacterial activity against methicillin-resistant Staphylococcus aureus N315 after 24 hrs by micro broth dilution assay; assay type: functional; details: N315, 24 h
Micrococcus luteus = test: Antibacterial activity against Micrococcus luteus ATCC4698 after 24 hrs by micro broth dilution assay; assay type: functional; details: ATCC4698, 24 h
Aspergillus flavus = test: Antifungal against Aspergillus flavus after 24 hrs by two fold serial dilution method; assay type: functional
Bacillus = test: Antibacterial activity against Bacillus proteus ATCC 13315 after 24 hrs by micro broth dilution assay; assay type: functional; details: ATCC 13315, 24 h
Salmonella typhi = test: Antibacterial activity against Bacillus typhi after 24 hrs by micro broth dilution assay; assay type: functional, Salmonella enterica subsp. enterica serovar Typhi; details: Salmonella enterica
Staphylococcus aureus [9] = test: Antibacterial activity against methicillin-resistant Staphylococcus aureus N315 incubated for 24 hrs followed by plating onto tryptic soy agar medium and measured after 24 hrs; assay type: functional; details: N315, 24 h
Staphylococcus aureus [10] = test: Antibacterial activity against Staphylococcus aureus ATCC 25923 incubated for 24 hrs followed by plating onto tryptic soy agar medium and measured after 24 hrs; assay type: functional; details: ATCC 25923, 24 h
Staphylococcus aureus [11] = test: Ratio of MBC for methicillin-resistant Staphylococcus aureus N315 to MIC for methicillin-resistant Staphylococcus aureus N315; assay type: functional
Saccharomyces cerevisiae = test: Antifungal against Saccharomyces cerevisiae after 24 hrs by two fold serial dilution method; assay type: functional

Nc1nc(-c2ccc(F)cc2)cc(-c2nc3ccccc3[nH]2)n1
MIC (Cyberlindnera jadinii): 128 µg/mL (≈ 419 µM) | MIC (Escherichia coli [1]): 128 µg/mL (≈ 419 µM) | MIC (Bacillus subtilis): 2 µg/mL (≈ 6.55 µM) | MIC (Candida albicans): 8 µg/mL (≈ 26.2 µM) | MIC (Pichia norvegensis): 256 µg/mL (≈ 838 µM) | MIC (Escherichia coli [2]): 128 µg/mL (≈ 419 µM) | MIC (Staphylococcus aureus [3]): 2 µg/mL (≈ 6.55 µM) | MIC (Shigella dysenteriae): 16 µg/mL (≈ 52.4 µM) | MIC (Pseudomonas aeruginosa [4]): 16 µg/mL (≈ 52.4 µM) | MBC (Pseudomonas aeruginosa [5]): 16 µg/mL (≈ 52.4 µM) | Ratio (Staphylococcus aureus [6]): 1 | Ratio (Pseudomonas aeruginosa [7]): 1 | MIC (Staphylococcus aureus [8]): 128 µg/mL (≈ 419 µM) | MIC (Micrococcus luteus): 32 µg/mL (≈ 105 µM) | MIC (Aspergillus flavus): 256 µg/mL (≈ 838 µM) | MIC (Bacillus): 128 µg/mL (≈ 419 µM) | MIC (Salmonella typhi): 8 µg/mL (≈ 26.2 µM) | MBC (Staphylococcus aureus [9]): 512 µg/mL (≈ 1680 µM) | MBC (Staphylococcus aureus [10]): 2 µg/mL (≈ 6.55 µM) | Ratio (Staphylococcus aureus [11]): 4 | MIC (Saccharomyces cerevisiae): 64 µg/mL (≈ 210 µM)

CCCCn1c(-c2cc(-c3ccc(Cl)cc3)nc(N)n2)nc2ccccc21
MIC (Cyberlindnera jadinii): 2 µg/mL (≈ 5.29 µM) | MIC (Escherichia coli [1]): 128 µg/mL (≈ 339 µM) | MIC (Bacillus subtilis): 64 µg/mL (≈ 169 µM) | MIC (Candida albicans): 64 µg/mL (≈ 169 µM) | MIC (Pichia norvegensis): 4 µg/mL (≈ 10.6 µM) | MIC (Escherichia coli [2]): 64 µg/mL (≈ 169 µM) | MIC (Staphylococcus aureus [3]): 16 µg/mL (≈ 42.3 µM) | MIC (Shigella dysenteriae): 256 µg/mL (≈ 677 µM) | MIC (Pseudomonas aeruginosa [4]): 64 µg/mL (≈ 169 µM) | MBC (Pseudomonas aeruginosa [5]): 512 µg/mL (≈ 1350 µM) | Ratio (Staphylococcus aureus [6]): 1 | Ratio (Pseudomonas aeruginosa [7]): 8 | MIC (Staphylococcus aureus [8]): 32 µg/mL (≈ 84.7 µM) | MIC (Micrococcus luteus): 64 µg/mL (≈ 169 µM) | MIC (Aspergillus flavus): 256 µg/mL (≈ 677 µM) | MIC (Bacillus): 4 µg/mL (≈ 10.6 µM) | MIC (Salmonella typhi): 8 µg/mL (≈ 21.2 µM) | MBC (Staphylococcus aureus [9]): 64 µg/mL (≈ 169 µM) | MBC (Staphylococcus aureus [10]): 16 µg/mL (≈ 42.3 µM) | Ratio (Staphylococcus aureus [11]): 2 | MIC (Saccharomyces cerevisiae): 128 µg/mL (≈ 339 µM)

Nc1nc(-c2ccc(Cl)cc2)cc(-c2nc3ccccc3[nH]2)n1
MIC (Cyberlindnera jadinii): 2 µg/mL (≈ 6.22 µM) | MIC (Escherichia coli [1]): 128 µg/mL (≈ 398 µM) | MIC (Bacillus subtilis): 64 µg/mL (≈ 199 µM) | MIC (Candida albicans): 1 µg/mL (≈ 3.11 µM) | MIC (Pichia norvegensis): 512 µg/mL (≈ 1590 µM) | MIC (Escherichia coli [2]): 32 µg/mL (≈ 99.4 µM) | MIC (Staphylococcus aureus [3]): 64 µg/mL (≈ 199 µM) | MIC (Shigella dysenteriae): 32 µg/mL (≈ 99.4 µM) | MIC (Pseudomonas aeruginosa [4]): 128 µg/mL (≈ 398 µM) | MBC (Pseudomonas aeruginosa [5]): 512 µg/mL (≈ 1590 µM) | Ratio (Staphylococcus aureus [6]): 4 | Ratio (Pseudomonas aeruginosa [7]): 4 | MIC (Staphylococcus aureus [8]): 128 to 512 µg/mL (≈ 398 to 1590 µM) | MIC (Micrococcus luteus): 64 µg/mL (≈ 199 µM) | MIC (Aspergillus flavus): 4 µg/mL (≈ 12.4 µM) | MIC (Bacillus): 8 µg/mL (≈ 24.9 µM) | MIC (Salmonella typhi): 512 µg/mL (≈ 1590 µM) | MBC (Staphylococcus aureus [9]): 256 µg/mL (≈ 796 µM) | MBC (Staphylococcus aureus [10]): 256 µg/mL (≈ 796 µM) | Ratio (Staphylococcus aureus [11]): 2 | MIC (Saccharomyces cerevisiae): 512 µg/mL (≈ 1590 µM)

CCCCCCCn1c(-c2cc(-c3ccc(C)cc3)nc(N)n2)nc2ccccc21
MIC (Cyberlindnera jadinii): 32 µg/mL (≈ 80.1 µM) | MIC (Escherichia coli [1]): 4 µg/mL (≈ 10 µM) | MIC (Bacillus subtilis): 512 µg/mL (≈ 1280 µM) | MIC (Candida albicans): 32 µg/mL (≈ 80.1 µM) | MIC (Pichia norvegensis): 512 µg/mL (≈ 1280 µM) | MIC (Escherichia coli [2]): 16 µg/mL (≈ 40 µM) | MIC (Staphylococcus aureus [3]): 512 µg/mL (≈ 1280 µM) | MIC (Shigella dysenteriae): 4 µg/mL (≈ 10 µM) | MIC (Pseudomonas aeruginosa [4]): 4 µg/mL (≈ 10 µM) | MBC (Pseudomonas aeruginosa [5]): 4 µg/mL (≈ 10 µM) | Ratio (Pseudomonas aeruginosa [7]): 1 | MIC (Staphylococcus aureus [8]): 32 µg/mL (≈ 80.1 µM) | MIC (Micrococcus luteus): 8 µg/mL (≈ 20 µM) | MIC (Aspergillus flavus): 512 µg/mL (≈ 1280 µM) | MIC (Bacillus): 256 µg/mL (≈ 641 µM) | MIC (Salmonella typhi): 2 µg/mL (≈ 5.01 µM) | MBC (Staphylococcus aureus [9]): 32 µg/mL (≈ 80.1 µM) | MBC (Staphylococcus aureus [10]): > 512 µg/mL | Ratio (Staphylococcus aureus [11]): 1 | MIC (Saccharomyces cerevisiae): 4 µg/mL (≈ 10 µM)
